Broadly, the IC50 is the midpoint of a concentration-inhibition curve.

Each structure is given as a SMILES string. The source made the active and inactive calls. No cut-off for these calls is given here.

The subject of experiment [1] is 3T3-L1. The experiment can be described thus: Anti-adipogenic activity against mouse 3T3-L1 cells assessed as decrease in triglyceride level at 1 uM by Oil Red O staining based spectroscopic analysis. Format: functional. Set-up: scale not given: the % may be the effect or the level left.
Experiment [2] concerns 3T3-L1. The experiment can be described thus: Anti-adipogenic activity against mouse 3T3-L1 cells assessed as decrease in triglyceride level incubated for […] by Oil Red O staining based microscopic analysis. Format: functional, cell-based.
The target in experiment [3] is Regulatory-associated protein of mTOR (Mus musculus) (UniProt Q8K4Q0). In words: Binding affinity to Raptor in mouse 3T3-L1 cells at 1 to 10 uM incubated overnight by pull-down assay. Conditions: dose 1-10 µM.
Sequence of Regulatory-associated protein of mTOR (Mus musculus) (Q8K4Q0 whole entry, looked up): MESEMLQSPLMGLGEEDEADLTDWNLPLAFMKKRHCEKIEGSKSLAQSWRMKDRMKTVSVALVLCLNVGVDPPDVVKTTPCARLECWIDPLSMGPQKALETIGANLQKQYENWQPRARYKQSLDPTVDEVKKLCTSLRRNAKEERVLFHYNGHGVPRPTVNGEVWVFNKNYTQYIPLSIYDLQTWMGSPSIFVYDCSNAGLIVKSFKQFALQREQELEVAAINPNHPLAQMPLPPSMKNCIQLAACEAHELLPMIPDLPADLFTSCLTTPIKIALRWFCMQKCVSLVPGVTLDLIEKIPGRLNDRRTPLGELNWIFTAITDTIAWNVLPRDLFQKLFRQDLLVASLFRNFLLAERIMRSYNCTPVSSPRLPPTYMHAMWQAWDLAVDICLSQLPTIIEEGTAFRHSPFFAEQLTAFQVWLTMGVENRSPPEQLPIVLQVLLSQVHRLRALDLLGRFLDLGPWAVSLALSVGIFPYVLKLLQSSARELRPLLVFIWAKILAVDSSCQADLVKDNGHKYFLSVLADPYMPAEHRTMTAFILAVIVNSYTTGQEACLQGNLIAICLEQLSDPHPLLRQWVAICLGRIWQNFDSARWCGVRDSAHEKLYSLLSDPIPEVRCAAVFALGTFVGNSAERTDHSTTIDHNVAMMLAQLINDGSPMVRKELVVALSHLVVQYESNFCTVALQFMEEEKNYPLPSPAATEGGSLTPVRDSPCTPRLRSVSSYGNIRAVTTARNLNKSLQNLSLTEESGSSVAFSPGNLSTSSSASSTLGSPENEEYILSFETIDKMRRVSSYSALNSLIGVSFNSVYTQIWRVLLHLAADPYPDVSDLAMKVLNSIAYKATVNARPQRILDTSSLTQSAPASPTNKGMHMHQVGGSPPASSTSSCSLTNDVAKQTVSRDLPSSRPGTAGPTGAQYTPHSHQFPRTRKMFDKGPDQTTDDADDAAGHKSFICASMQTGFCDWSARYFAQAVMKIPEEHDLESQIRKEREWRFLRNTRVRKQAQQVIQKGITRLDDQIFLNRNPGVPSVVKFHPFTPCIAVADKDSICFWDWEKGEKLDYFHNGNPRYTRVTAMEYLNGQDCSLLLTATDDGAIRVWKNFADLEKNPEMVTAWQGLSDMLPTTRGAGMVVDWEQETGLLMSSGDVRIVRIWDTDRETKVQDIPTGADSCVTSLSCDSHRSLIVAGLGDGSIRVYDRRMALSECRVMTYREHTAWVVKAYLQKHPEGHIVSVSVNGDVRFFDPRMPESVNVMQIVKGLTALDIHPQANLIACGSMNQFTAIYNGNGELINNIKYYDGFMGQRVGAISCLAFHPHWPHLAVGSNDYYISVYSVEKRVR

With `C=C(C)[C@@]12OC3(/C=C/C=C/CCCCC)O[C@@H]1[C@@H]1[C@@H]4O[C@]4(COC(C)=O)[C@@H](OC(C)=O)[C@]4(O)C(=O)C(C)=C[C@H]4[C@@]1(O3)[C@H](C)[C@H]2OC(=O)c1ccccc1`, the Activity in experiment [1] is on record as above 50%.

With `C=C(C)[C@@]12OC3(c4ccccc4)O[C@@H]1[C@@H]1[C@@H]4O[C@]4(CO)[C@@H](O)[C@]4(O)C(=O)C(C)=C[C@H]4[C@@]1(O3)[C@H](C)[C@H]2OC(=O)CC`, the Activity in experiment [1] is reported as above 50%.

On to `C=C(C)[C@@]12OC3(c4ccccc4)O[C@@H]1[C@@H]1[C@@H]4O[C@]4(CO)[C@@H](O)[C@]4(O)C(=O)C(C)=C[C@H]4[C@@]1(O3)[C@H](C)[C@H]2OC(C)=O`, for which the Activity in experiment [1] is on record as above 50%.

Take `C=C(C)[C@@]12OC3(/C=C/C=C/CCCCC)O[C@@H]1[C@@H]1[C@@H]4O[C@]4(COC(C)=O)[C@@H](OC(C)=O)[C@]4(O)C(=O)C(C)=C[C@H]4[C@@]1(O3)[C@H](C)[C@H]2OC(C)=O`: the Activity in experiment [1] is above 50%.

As for `C=C(C)[C@@]12OC3(c4ccccc4)O[C@@H]1[C@@H]1[C@@H]4O[C@]4(CO)[C@@H](O)[C@]4(O)C(=O)C(C)=C[C@H]4[C@@]1(O3)[C@H](C)[C@H]2OC(=O)c1ccccc1`, the Activity in experiment [1] is reported as above 50%.

For the compound `C=C(C)[C@@]12OC3(c4ccccc4)O[C@@H]1[C@@H]1[C@@H]4O[C@]4(CO)[C@@H](O)[C@]4(O)C(=O)[C@@H](C)C[C@H]4[C@@]1(O3)[C@H](C)[C@H]2OC(=O)c1ccccc1`, the Activity in experiment [1] was above 50%.

Turning to `C=C(C)[C@@]12OC3(/C=C/C=C/CCCCC)O[C@@H]1[C@@H]1[C@@H]4O[C@]4(COC(=O)c4ccccc4)[C@@H](O)[C@]4(O)C(=O)C(C)=C[C@H]4[C@@]1(O3)[C@H](C)[C@H]2OC(C)=O`, in experiment [1], the Activity is given as above 50%.

Regarding `C=C(C)[C@@]12OC3(c4ccccc4)O[C@@H]1[C@@H]1[C@@H](Cl)[C@@](O)(CO)[C@@H](O)[C@]4(O)C(=O)C(C)=C[C@H]4[C@@]1(O3)[C@H](C)[C@H]2OC(C)=O`, the Activity in experiment [1] is on record as above 50%.

`C=C(C)[C@@]12OC3(c4ccccc4)O[C@@H]1[C@@H]1[C@H](O)[C@](Cl)(CO)[C@@H](O)[C@]4(O)C(=O)C(C)=C[C@H]4[C@@]1(O3)[C@H](C)[C@H]2OC(C)=O`: in experiment [1], the Activity is above 50%.

With `C=C(C)[C@@]12OC3(c4ccccc4)O[C@@H]1[C@@H]1[C@@H]4O[C@]4(COC(=O)c4ccccc4)[C@@H](O)[C@]4(O)C(=O)C(C)=C[C@H]4[C@@]1(O3)[C@H](C)[C@H]2OC(C)=O`, in experiment [1], the Activity is listed as above 50%.

Regarding `C=C(C)[C@@]12OC3(c4ccccc4)O[C@@H]1[C@@H]1[C@H](O)[C@](Cl)(CO)[C@@H](O)[C@]4(O)C(=O)C(C)=C[C@H]4[C@@]1(O3)[C@H](C)[C@H]2OC(=O)c1ccccc1`, the Activity in experiment [1] was above 50%.

As to `C=C(C)[C@@]12OC3(/C=C/C=C/CCCCC)O[C@@H]1[C@@H]1[C@@H]4O[C@]4(CO)[C@@H](O)[C@]4(O)C(=O)C(C)=C[C@H]4[C@@]1(O3)[C@H](C)[C@H]2OC(=O)CCC`, the Activity in experiment [1] is above 50%.

For the compound `C=C(C)[C@@]12OC3(/C=C/C=C/CCCCC)O[C@@H]1[C@@H]1[C@@H]4O[C@]4(CO)[C@@H](O)[C@]4(O)C(=O)C(C)=C[C@H]4[C@@]1(O3)[C@H](C)[C@H]2OC(=O)c1ccccc1`, the Activity in experiment [1] is above 50%.

Regarding `C=C(C)[C@@]12OC3(/C=C/C=C/CCCCC)O[C@@H]1[C@@H]1[C@@H]4O[C@]4(CO)[C@@H](O)[C@]4(O)C(=O)C(C)=C[C@H]4[C@@]1(O3)[C@H](C)[C@H]2OC(C)=O`, in experiment [1], the Activity is above 50%.

Consider `C=C(C)[C@@]12OC3(c4ccccc4)O[C@@H]1[C@@H]1[C@H](O)[C@](Cl)(COC(=O)c4ccccc4)[C@@H](OC(=O)CCCCCNC(=O)CCCC[C@@H]4SC[C@@H]5NC(=O)N[C@@H]54)[C@]4(O)C(=O)C(C)=C[C@H]4[C@@]1(O3)[C@H](C)[C@H]2OC(C)=O`, for which, in experiment [2], the 50% inhibitory concentration (IC50) came out at 1.05 µM. The result in experiment [3] was Active.

With `C=C(C)[C@@]12OC3(c4ccccc4)O[C@@H]1[C@@H]1[C@@H]4O[C@]4(CO)[C@@H](O)[C@]4(O)C(=O)C(C)=C[C@H]4[C@@]1(O3)[C@H](C)[C@H]2OC(=O)CCC`, the Activity in experiment [1] is listed as above 50%.

Consider `C=C(C)[C@@]12OC3(/C=C/C=C/CCCCC)O[C@@H]1[C@@H]1[C@@H]4O[C@]4(COC(C)=O)[C@@H](O)[C@]4(O)C(=O)C(C)=C[C@H]4[C@@]1(O3)[C@H](C)[C@H]2OC(=O)c1ccccc1`, for which the Activity in experiment [1] is above 50%.

Turning to `C=C(C)[C@@]12OC3(c4ccccc4)O[C@@H]1[C@@H]1[C@@H]4O[C@]4(COC(C)=O)[C@@H](O)[C@]4(O)C(=O)C(C)=C[C@H]4[C@@]1(O3)[C@H](C)[C@H]2OC(C)=O`, the Activity in experiment [1] is above 50%.

For `C=C(C)[C@@]12OC3(c4ccccc4)O[C@@H]1[C@@H]1[C@@H]4O[C@]4(COC(=O)c4ccccc4)[C@@H](O)[C@]4(O)C(=O)C(C)=C[C@H]4[C@@]1(O3)[C@H](C)[C@H]2OC(=O)c1ccccc1`, in experiment [1], the Activity was above 50%.

On to `C=C(C)[C@@]12OC3(c4ccccc4)O[C@@H]1[C@@H]1[C@@H](Cl)[C@@](O)(CO)[C@@H](O)[C@]4(O)C(=O)C(C)=C[C@H]4[C@@]1(O3)[C@H](C)[C@H]2OC(=O)c1ccccc1`, for which the Activity in experiment [1] is given as above 50%.

Regarding `C=C(C)[C@@]12OC3(c4ccccc4)O[C@@H]1[C@@H]1[C@@H](Cl)[C@@](O)(COC(=O)c4ccccc4)[C@@H](O)[C@]4(O)C(=O)C(C)=C[C@H]4[C@@]1(O3)[C@H](C)[C@H]2OC(C)=O`, the Activity in experiment [1] was above 50%.

Turning to `C=C(C)[C@@]12OC3(/C=C/C=C/CCCCC)O[C@@H]1[C@@H]1[C@@H]4O[C@]4(COC(C)=O)[C@@H](O)[C@]4(O)C(=O)C(C)=C[C@H]4[C@@]1(O3)[C@H](C)[C@H]2OC(C)=O`, the Activity in experiment [1] was above 50%.

On to `C=C(C)[C@@]12OC3(c4ccccc4)O[C@@H]1[C@@H]1[C@@H]4O[C@]4(COC(C)=O)[C@@H](O)[C@]4(O)C(=O)C(C)=C[C@H]4[C@@]1(O3)[C@H](C)[C@H]2OC(=O)c1ccccc1`, for which the Activity in experiment [1] was above 50%.

For the origin of these results see ChEMBL document CHEMBL5380850, “Discovery of the First Raptor (Regulatory-Associated Protein of mTOR) Inhibitor as a New Type of Antiadipogenic Agent” (J Med Chem, 2023).
